Experimental findings from US6491953B1, “Controlled release compositions and method” (Amcol International Corporation, priority 1999, dated 2002) are described below.

What all share (format): physicochemical
Data set [1] can be described thus: Adsorption / entrapment of solid and liquid materials on POLYPORE E 200 microparticles (Example 1). To be noted: adsorbed on microparticles of Example 1 (POLYPORE E 200). The text has this:
The adsorbent polymer microparticles made by the suspension polymerization technique include at least two polyunsaturated monomers, preferably allyl methacrylate and an ethylene glycol dimethacrylate, and, optionally, monounsaturated monomers. The microparticles are characterized by being open to their interior, due to either particle fracture upon removal of a porogen after polymerization or to subsequent milling. […] In a preferred embodiment, the broken sphere microparticles are characterized by a mean unit diameter from about 1 to about 50 microns, more preferably from about 1 to about 25 microns, most preferably, from about 1 to about 20 microns.
The copolymer powder of Example 1 was mixed with zinc pyrithione (solids having a particle size of 3 to 5 microns slurried in water) in an amount of 12 grams of slurry per one gram of the copolymer, then dried in an oven at 80° C. to evaporate water. […] Zinc pyrithione was supplied by Ruetger Nease Company, as mixture of 48% of zinc pyrithione, 51% water, and 1% zinc chloride, and is used as antidandruff component in hair care products, e.g., antidandruff shampoos.
The copolymer of Example 1 was loaded with a methanol/salicylic acid solution in an amount of 12 grams per gram, and dried in an oven at 80° C. to evaporate the methanol. […] Salicylic acid is an antiseptic and antifungal agent.
Retinol was dissolved in same amount of ether. The solution (5.5 grams) was adsorbed on 1 gram of the adsorbent polymer of Example 1. […] Usually retinol is in the form of sticky crystals, is light sensitive, and is skin irritant. Retinol is used in cosmetic formulations and as a vitamin.

Data set [2] can be described thus: Adsorption / entrapment of solid and liquid active agents on POLYPORE L 200 microparticles (Example 2). The note with it: adsorbed on microparticles of Example 2 (POLYPORE L 200). The protocol: The copolymer of Example 2 was loaded with a methanol/salicylic acid solution to an amount of 12 grams per gram, and dried in an oven at 80° C. to evaporate methanol. The resulting dry product was a white, fine powder, with […] entrapped salicylic acid, i.e., 2.8 grams per gram.
Retinol was dissolved in an equal weight amount of ether, then 5.5 grams of the solution was adsorbed on 1 gram of the adsorbent polymer of Example 2. Thereafter, ether was evacuated under vacuum, and a free-flowing light yellow powder was obtained. The adsorbed amount of retinol was 2.75 grams per gram, i.e., 73%. Usually, retinol is in form of sticky crystals, is light sensitive, and a skin irritant.
The microparticles of Example 2 (POLYPORE™ L 200) also had various other solid and liquid active agents adsorbed thereto, as shown in Table 2: […]

Data set [3] can be described thus: Stability (discoloration) of ascorbic acid compositions added to water. The protocol:
The stability of the three compositions was tested by adding individual portions of the three compositions to water at 25° C. and at 45° C. A control solution of 1-ascorbic acid in water discolored after four hours at 45° C. and after five days at room temperature. […] A polymer-ascorbic acid solution, without the addition of a release retardant, also discolored during the test. Accordingly, a release retardant protects and stabilizes an active agent adsorbed onto an adsorbent polymer.

As to `CCCCCCCCCCCCCC(=O)OC(C)C` [Isopropyl Myristate], in data set [1], the “Free-Flowing (g/g) adsorbed” value was 8.0 g/g and the “Total (g/g) adsorbed” value came to 10.7 g/g. Further, in data set [2], the “Free-Flowing (g/g) adsorbed” value is 9.5 g/g and the “Total (g/g) adsorbed” value worked out at 11.4 g/g.

Consider `O=C1O[C@H]([C@@H](O)CO)C(O)=C1O` [1-ascorbic acid], for which the “time after which solution discolored” value was “four” in data set [3] (in water at 45° C.) and “five” in data set [3] (in water at room temperature).

On to `OCC(O)CO` [Glycerin], for which the figures for the “Free-Flowing (g/g) adsorbed” value in data set [1] and in data set [2] were 6.0 g/g and 7.6 g/g, respectively. Moreover, the “Total (g/g) adsorbed” value is reported as 8.0 g/g in data set [1] and 10.0 g/g in data set [2].

For `CC(=O)Oc1c(C)c(C)c2c(c1C)CCC(C)(CCC[C@H](C)CCC[C@H](C)CCCC(C)C)O2` (stereo partly shown) [Vitamin E Acetate], in data set [1], the “Free-Flowing (g/g) adsorbed” value is 5.6 g/g and the “Total (g/g) adsorbed” value turned out to be 7.2 g/g. Besides, in data set [2], the “Free-Flowing (g/g) adsorbed” value was 7.0 g/g and the “Total (g/g) adsorbed” value came out at 9.2 g/g.

Regarding `COc1ccc(C(=O)c2ccccc2)c(O)c1` [Benzophenone-3], the “Free-Flowing (g/g) adsorbed” value in data set [1] stood at 9.2 g/g; in data set [2] it was 9.1 g/g. In addition, the “Total (g/g) adsorbed” value is listed as 12.3 g/g in data set [1] and 12.8 g/g in data set [2].

Turning to “Cyclomethicone [Cyclomethicone (DC 244)]”, in data set [1], the “Free-Flowing (g/g) adsorbed” value is 9.6 g/g and the “Total (g/g) adsorbed” value is given as 12.0 g/g. In data set [2], the “Free-Flowing (g/g) adsorbed” value is reported as 10.8 g/g and the “Total (g/g) adsorbed” value was 15.0 g/g.

Take `CC(=O)OCc1ccccc1` [Benzyl Acetate]: in data set [1], the “Free-Flowing (g/g) adsorbed” value stood at 10.2 g/g and the “Total (g/g) adsorbed” value worked out at 12.3 g/g. For the same compound, in data set [2], the “Free-Flowing (g/g) adsorbed” value is on record as 9.9 g/g and the “Total (g/g) adsorbed” value stood at 12.7 g/g.

In the case of `Oc1cc(Cl)ccc1Oc1ccc(Cl)cc1Cl` [IRGASAN DP 300, 5-chloro-2-(2,4-dichlorophenoxy)phenol], the “Total (g/g) adsorbed” value in data set [1] is listed as 10.0 g/g; in data set [2], 10.7 g/g.
